Laboratory results as given in BindingDB's records for doi:10.1021/jm020211+ (National Institute of Diabetes and Digestive and Kidney …, 2002).

Molecular target: T1, Adenosine receptor A3 (Homo sapiens, UniProt P0DMS8)
T1 sequence (P0DMS8 whole entry): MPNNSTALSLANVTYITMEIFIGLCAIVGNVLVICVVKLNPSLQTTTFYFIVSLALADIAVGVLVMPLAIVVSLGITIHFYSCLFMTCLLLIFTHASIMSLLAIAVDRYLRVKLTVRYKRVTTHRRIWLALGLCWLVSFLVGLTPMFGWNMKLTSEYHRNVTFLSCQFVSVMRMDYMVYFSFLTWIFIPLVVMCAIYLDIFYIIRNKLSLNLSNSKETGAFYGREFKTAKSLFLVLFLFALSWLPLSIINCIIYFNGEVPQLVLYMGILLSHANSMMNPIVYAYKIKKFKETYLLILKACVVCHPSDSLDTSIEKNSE
Test: Effect on forskolin-stimulated cyclic AMP production in intact chinese hamster ovary (CHO) cell expressing the human Adenosine A3 receptor

Question: With `Nc1nc(Cl)nc2c1ncn2C1C(O)C(O)C2(CO)CC12` (stereo unspecified) [4-(6-Amino-2-chloro-purin-9-yl)-1-hydroxymethyl-bicyclo[3.1.0]hexane-2,3-diol] as the molecule, how does the EC50 read?
Answer: 803 nM
